Experimental data taken from publication PMC11325505, “Nitrogen-Containing Flavonoids—Preparation and Biological Activity” (ACS Omega, 2024).
Converted amounts (≈) assume the structure as drawn. Where two headings read alike, the source gives them in different places.

How the values were obtained:
[1] = tested on: transmembrane efflux pumps; experiment: Ethidium bromide accumulation assay; format: cell-based, S. aureus MSSA 2; settings: compared with comparator CCCP; concentrations 25–100 μM
Source text: The application of antibiotics often leads to oxidative stress in bacteria, which triggers the efflux pump systems that contribute to antimicrobial resistance.[34] Therefore, modulation of the efflux system has been proposed as another plausible target of derivatives. The efflux pump inhibitor carbonyl cyanide 3-chlorophenylhydrazone (CCCP) was used as a comparator in our assay. Its action destroys the proton-motive force at the membrane so that the efflux pump cannot transport substrates out of the cell. One such universal substrate is ethidium bromide, the accumulation of which in the cell can be measured using fluorescence.
The accumulation assay was performed according to previously published methods with minor modifications.[15],[42] Briefly, a bacterial culture of S. aureus MSSA 2 cultured overnight in the presence of colistin (4 mg/L) to induce oxidative stress and activate efflux system[34] was diluted in PBS to OD600 nm = 0.6. The suspension was centrifuged (13,000 × g; 3 min), resuspended in fresh PBS, and distributed into the wells of a black 96-well microtiter plate (ThermoFisher Scientific). Samples were diluted with EtBr solution (4 μg/mL). 50 μL of the mixture was added to 50 μL of the bacterial suspension. The reaction was monitored using SpectraMax iD5Multi-Mode Microplate Reader (ex/em = 530/600 nm) every 60 s for 60 min.

[2] = tested on: human dermal fibroblasts (HDF); experiment: Cytotoxicity (resazurin assay), fibroblasts; format: cell-based; settings: 72 h incubation, resazurin, average of three repetitions ± SEM, read-out: HDF IC50 (concentration that halved the viability)
Protocol: (§1) The cytotoxicity of the prepared derivatives was evaluated by their ability to decrease the viability of immortalized human keratinocytes (HaCaT) and human dermal fibroblasts (HDF).
(§2) 100 μL of cell suspension containing 10^5 cells/mL was pipetted into a 96-well plate. After 24 h incubation, the tested compounds were added in the concentration range 12.5–200 μM. After 72 h incubation, the cell viability was tested by standard resazurin assay.[41] Briefly, the cells were washed with PBS and incubated with 100 μL of resazurin solution (0.025 mg/mL) for 2 h. The fluorescence was measured at a wavelength of 560 nm excitation/590 nm emission.

[3] = tested on: immortalized human keratinocytes (HaCaT); experiment: Cytotoxicity (resazurin assay), keratinocytes; format: cell-based; settings: 72 h incubation, resazurin, average of three repetitions ± SEM, read-out: HaCaT IC50 (concentration that halved the viability)
Protocol: as §1, §2

S. aureus MRSA 9 = experiment: Antibacterial activity, multidrug-resistant strain; format: cell-based; settings: for effect of the antibiotic alone on the multidrug-resistant clinical strain: breakpoint concentrations (1 mg/L); for IC50: Staphylococcus aureus, MRSA, multidrug-resistant strain, three repetitions ± SEM
Protocol: (§3) To evaluate the ability to modulate bacterial resistance, the tested flavonoids themselves cannot exert antimicrobial activity; therefore, the nontoxic concentration was used, as indicated in Table S5. Clinically relevant antibiotics were selected at breakpoint concentrations for susceptibility testing according to the European Committee on Antimicrobial Susceptibility Testing (EUCAST, version 11.0). […] Flavonoids and their derivatives (from 1 μM to the highest nontoxic concentration) were used in combination with the breakpoint concentration of the antibiotics. After coincubation, the minimum inhibitory concentration (MIC) of flavonoids inhibiting the visible growth of bacteria was determined (Table 2).
(§4) Sensitization of multidrug-resistant clinical bacterial strains was performed according to ref[15]. Antibiotic cutoff concentration was chosen according to the European Committee on Antimicrobial Susceptibility Testing (EUCAST, Clinical breakpoints–bacteria, ver. 11.0). The 200 μM concentration of the derivatives was chosen as the highest test concentration. The absorbance detected at 600 nm was then used to estimate the number of viable cells after 24 h of incubation at 37 °C and 120 rpm.
(§5) Experiments were performed with the respective number of replicates indicated in each figure/table. MIC was determined as IC70. Both IC70 and IC50 values were calculated using the following nonlinear regression in the software GraphPad Prism: […]

[4] = tested on: Staphylococcus aureus MRSA 9; experiment: Modulation of antibiotic-resistant phenotype (flavonoid plus breakpoint concentration of antibiotic); format: cell-based; settings: for minimum inhibitory concentration (MIC) in the presence of erythromycin: erythromycin at breakpoint concentration 1 mg/L; for minimum inhibitory concentration (MIC) in the presence of erythromycin / minimum inhibitory concentration (MIC) in the presence of gentamicin: MIC determined as IC70, three repetitions ± SEM; for minimum inhibitory concentration (MIC) in the presence of gentamicin: gentamicin at breakpoint concentration 1 mg/L
Protocol: as §3, §4, §5

[5] = tested on: tumor necrosis factor (TNF-α) production by RAW 264.7 stimulated by LPS; experiment: Anti-inflammatory activity: TNF-α production by LPS-stimulated macrophages; format: cell-based, Murine; settings: Mus musculus, RAW264.7; LPS-stimulated RAW 264.7; average of four repetitions ± SEM; read-out: TNFα production IC50
Protocol: (§6) The anti-inflammatory activity of flavonoids was evaluated as their ability to decrease the production of signaling molecules that mediate inflammation, such as nitric oxide (NO), tumor necrosis factor (TNF-α), and interleukin 6 (IL-6), in LPS-stimulated macrophages.
(§7) The anti-inflammatory activity of the tested flavonoids was determined as the ability to reduce the production of nitric oxide (NO), tumor necrosis factor (TNF-α), and interleukin 6 (IL-6) by RAW 264.7 stimulated by LPS, as previously described.[39],[40] Briefly, 1 × 10^6 cells/mL was seeded into the 96-well plate (100 μL/well). After 48 h, LPS (100 ng/mL) and the samples (3–100 μM) were added to the MEM medium. After 24 h, the medium was mixed with Griess reagent (0.04 g/mL) at a 1:1 ratio. The absorbance was measured after 15 min at 540 nm. Cell viability was determined using the resazurin assay.
(§8) To determine TNF-α levels, cells were precultivated with the tested compounds for 24 h. After 2 h of incubation with LPS, the medium was diluted 1:10 with ELISA diluent. To determine the level of IL-6, cells were cultivated for 6 h with LPS and the tested compounds. Cytokine production was determined using an uncoated ELISA performed according to the manufacturer’s instructions.

RAW 264.7 cells = experiment: Cellular antioxidant activity (CAA); format: cell-based, Murine; settings: Mus musculus, RAW264.7, macrophages RAW 264.7; average of four repetitions ± standard error of the mean
Protocol: To evaluate the antioxidant activity of the prepared derivatives and the respective parent compounds, cellular antioxidant activity (CAA) was measured in macrophages. Compared to other in vitro antioxidant assays, this method provides partial information about the uptake and metabolism of the compounds, because, in this assay, they must first enter the cell to exert antioxidant activity.[31] […] Derivatization of quercetin at C-8 with 4-fluoroaniline (5) increased the antioxidant activity of quercetin by 1.7-fold. […] The concentration of these derivatives required to halve the cellular radicals decreased 1.5-fold compared to luteolin.
Cellular antioxidant capacity was evaluated as previously described.[31],[39] Briefly, 100 μL of RAW 264.7 cells with a density corresponding to 1 × 10^6 cells/mL were split into 96-well plates. After 24 h, cells were washed with PBS, and DMEM supplemented with DCFH-DA (0.0125 mg/mL) was added to each well together with the tested samples in the concentration range of 1.5–200 μM. After 1 h incubation in a CO2 incubator, the medium was replaced with AAPH solution (0.16 mg/mL in PBS), and fluorescence was immediately recorded (ex./em. 485/540 nm) for 2 h in 5 min intervals.

[6] = tested on: interleukin 6 (IL-6) production by RAW 264.7 stimulated by LPS; experiment: Anti-inflammatory activity: IL-6 production by LPS-stimulated macrophages; format: cell-based, Murine; settings: Mus musculus, RAW264.7; LPS-stimulated RAW 264.7; average of four repetitions ± SEM
Protocol: as §6, §7, §8

S. aureus CCM 4223 = experiment: Antibacterial activity, antibiotic-sensitive strain; format: cell-based; settings: Staphylococcus aureus, CCM4223, three repetitions ± SEM
[7] = tested on: nitric oxide (NO) production by RAW 264.7 stimulated by LPS; experiment: Anti-inflammatory activity: NO production by LPS-stimulated macrophages; format: cell-based, Murine; settings: Mus musculus, RAW264.7; LPS-stimulated RAW 264.7; average of four repetitions ± SEM
Protocol: as §6, §7

MRSA 3596 = experiment: Mode of antimicrobial action with erythromycin or gentamicin, ermA- and aadD-positive strain; format: cell-based, S. aureus; settings: MRSA 3596 (aadD)
Source text: Erythromycin is a macrolide antibiotic that inhibits proteosynthesis by binding to the 50S subunit of the ribosome. In Staphylococcus species, resistance to erythromycin is associated with the presence of methyltransferases (encoded by erm genes) that alter the ribosomal target site. Another typical mechanism of resistance to erythromycin is the presence of an ATP-dependent efflux pump encoded by the msr(A) gene or a major facilitator superfamily (MFS) pump encoded by the lmrS gene. Both efflux pumps reduce the concentration of erythromycin in the cell below the therapeutic dose by transporting it across the membrane to the extracellular space. Another erythromycin resistance gene is the mph(C) gene, the product of which is a phosphotransferase that alters the structure of macrolide antibiotics. To elucidate the mechanism of erythromycin resistance modulation in S. aureus, further tests were performed with the strains MRSA 331 and MRSA 3596, which inactivate erythromycin via a single mechanism (ermC and ermA, respectively). […] Therefore, if the activity was not strain-specific, it would be necessary to consider the effect of the derivatives on this pump (Table 3).
(§9) Among the mechanisms of resistance to gentamicin previously described in S. aureus, the presence of enzymes that alter the structure of aminoglycosides is crucial. These enzymes can transfer nucleotides, phosphates, or acetyls to various −OH or −NH2 groups of gentamicin, preventing its subsequent interaction with the cellular target, i.e., the 30S ribosomal subunit. The bifunctional aminoglycoside-modifying enzyme with acetylation and phosphotransferase activities encoded by the gene aac(6’)/aph(2’), 4′,4″ adenyltransferase encoded by the aadD gene, and aminoglycoside O-phosphotransferase encoded by the gene aph(3′) are the most important.[37] […] For this reason, further testing continued using strains MRSA 3596 and MRSA 1584, which inactivate gentamicin only by a single mechanism (aadD and aac(6’)-aph(2’’), respectively).
as §4, §5

MRSA 1584 = experiment: Mode of antimicrobial action with gentamicin, aac(6')/aph(2')-positive strain; format: cell-based, Staphylococcus aureus
Source text: as §9, §4, §5

minimum inhibitory concentration (MIC) in the presence of erythromycin [4]	minimum inhibitory concentration (MIC) in the presence of gentamicin [4]	IC50 (S. aureus MRSA 9)	IC50 (RAW 264.7 cells)	IC50 [6]	IC50 (S. aureus CCM 4223)	IC50 [7]	SMILES	IC50 [5]	IC50 ([2]; Homo sapiens, Fibroblast, 72 h)	IC50 ([3]; Homo sapiens, HaCaT, 72 h)	also measured
							N#CC(C#N)=NNc1cccc(Cl)c1 [CCCP, carbonyl cyanide 3-chlorophenylhydrazone, reference compound]				efflux inhibition (ethidium bromide accumulation), in words [1]: increases the accumulation of ethidium bromide
							COc1cccc2c1C(=O)c1c(O)c3c(c(O)c1C2=O)C[C@@](O)(C(=O)CO)C[C@@H]3O[C@H]1C[C@H](N)[C@H](O)[C@H](C)O1 [Doxorubicin, reference compound]				IC50 ([2]; listed as doxorubicin): < 1 µM; IC50 [2]: 0.19 ± 0.01 µM; IC50 ([3]; listed as doxorubicin): < 1 µM; IC50 [3]: 0.42 ± 0.03 µM
							CC[C@H]1OC(=O)[C@H](C)[C@@H](O[C@H]2C[C@@](C)(OC)[C@@H](O)[C@H](C)O2)[C@H](C)[C@@H](O[C@@H]2O[C@H](C)C[C@H](N(C)C)[C@H]2O)[C@](C)(O)C[C@@H](C)C(=O)[C@H](C)[C@@H](O)[C@]1(C)O [Erythromycin, reference compound]				effect of the antibiotic alone on the multidrug-resistant clinical strain (S. aureus MRSA 9): did not affect
>200 µM	>200 ^note 2 μM	138 ± 1.2 µM	7.5 ± 0.7 µM	32.3 ± 2.3 µM	44 ± 0.1 µM	52.3 ± 2.3 µM	COc1ccc(Nc2c(O)cc(O)c3c(=O)c(O)c(-c4ccc(O)c(O)c4)oc23)cc1 [compound 6, 2-(3,4-Dihydroxyphenyl)-8-(4-methoxyanilino)-3,5,7-trihydroxy-4H–1-benzopyran-4-one]	> 50 µM	79.9 ± 1.5 µM	45.2 ± 3.5 µM	inhibition at 200 µM ([4]; Staphylococcus aureus, MRSA, with gentamicin 1 mg/L, maximum concentration used (200 μM), read-out: maximum concentration used inhibited bacterial growth to): 50.7%
>200 µM	43.8 ± 1.6 µM	70 ± 2 µM	5.5 ± 0.4 µM	12.9 ± 0.2 µM	32.7 ± 0.7 µM	34.4 ± 0.2 µM	O=c1c(O)c(-c2ccc(O)c(O)c2)oc2c(Nc3ccccc3)c(O)cc(O)c12 [compound 7, 2-(3,4-Dihydroxyphenyl)-8-(anilino)-3,5,7-trihydroxy-4H–1-benzopyran-4-one]	> 100 µM	115 ± 1.2 µM	102 ± 1.5 µM	MIC, Gentamicin [1 mg/L] yes (MRSA 3596; with gentamicin 1 mg/L): > 200 µM; MIC (MRSA 3596; Staphylococcus aureus, 24 h, read-out: MIC, Gentamicin [1 mg/L] no, without gentamicin, Table S6): > 200 µM; effect (mode of action with gentamicin) (MRSA 1584; MRSA 1584): indifferent (> 1 to < 2 indicates indifference); MIC, Gentamicin [1 mg/L] yes (MRSA 1584; MRSA 1584 (aac(6')/aph(2')), with gentamicin 1 mg/L): 31.9 ± 2.5 µM (≈ 12.5 µg/mL); FIC (Fractional Inhibitory Concentration Index) (MRSA 1584; MRSA 1584, with gentamicin): 1.07 ± 0.13; MIC (MRSA 1584; Staphylococcus aureus, 24 h, read-out: MIC, Gentamicin [1 mg/L] no, MRSA 1584, without gentamicin): 29.9 ± 1.2 µM (≈ 11.8 µg/mL)
>200 µM	>200 µM	> 200 µM	5.7 ± 1 µM	> 50 µM	> 200 µM	26.6 ± 0.4 µM	COc1cc(Nc2c(O)cc(O)c3c(=O)c(O)c(-c4ccc(O)c(O)c4)oc23)cc(OC)c1 [compound 9, 2-(3,4-Dihydroxyphenyl)-8-(3,5-dimethoxyanilino)-3,5,7-trihydroxy-4H–1-benzopyran-4-one]	> 50 µM	76 ± 3 µM	56.9 ± 1.9 µM	
							CNC(C)C1CCC(N)C(OC2C(N)CC(N)C(OC3OCC(C)(O)C(NC)C3O)C2O)O1 (centres unmarked) [gentamicin, reference compound]				effect of the antibiotic alone on the multidrug-resistant clinical strain (S. aureus MRSA 9): did not affect
